Active and inactive are the calls of the source. The rule behind the calls is not given here.
What was measured:
Cytochrome P450 2C19 = Cytochrome P450 2C19 (Homo sapiens, UniProt P33261); assay: Inhibition of CYP2C19 in human liver microsomes using S-mephenytoin as substrate in presence of NADPH; type: ADME, Microsome
[1] = biological target: T1, Protein cereblon/Mitogen-activated protein kinase kinase kinase kinase 1 (Homo sapiens, UniProt Q92918+Q96SW2); assay: PROTAC activity at CRBN/HPK1 in human Jurkat cells assessed as HPK1 degradation measured after 24 hrs by Western blotting analysis; type: cell-based; conditions: dose 1-2000 nM
[2] = Volume of distribution at steady state in Sprague-Dawley rat at 2 mg/kg, iv measured upto 24 hrs by LC-MS analysis; type: ADME, organism-based; conditions: in vivo, read-out: Vdss
[3] = AUC(0 to 24 hrs) in male Sprague-Dawley rat at 100 mg/kg/day, po measured at day 1; type: ADME, organism-based; conditions: in vivo, time 1 day
[4] = Tmax in male Sprague-Dawley rat at 30 mg/kg/day, po measured at day 1; type: ADME, organism-based; conditions: in vivo, time 1 day
[5] = Drug distribution in rat lymph node measured after 0.5 to 6 hrs; type: ADME, tissue-based; conditions: in vivo, time 0.5-6 hrs
[6] = Drug metabolism in mouse hepatocytes assessed as phase 2 metabolites formation at 10 uM incubated for 120 mins by UHPLC-UV/MS/MS method; type: ADME, cell-based, Hepatocyte; conditions: 2 h
[7] = Drug metabolism in dog hepatocytes assessed as phase 1 metabolites formation at 10 uM incubated for 120 mins by UHPLC-UV/MS/MS method; type: ADME, cell-based, Canis lupus familiaris, Hepatocyte; conditions: 2 h
[8] = In vivo induction of HPK1 degradation in C57BL/6J mouse spleen at 0.5 mg/kg administered as single dose and measured after 8 to 24 hrs; type: functional; conditions: time 8-24 hrs
in vivo [9] = conditions: male, Sprague-Dawley, rat, po, 30 mg/kg
[10] = AUCinfinity in Sprague-Dawley rat at 1 mg/kg, po measured upto 24 hrs by LC-MS analysis; type: ADME, organism-based; conditions: in vivo
[11] = Plasma protein binding in rat at 10 uM incubated for 6 hrs by equilibrium dialysis based LC-MS/MS method; type: ADME, cell-free; conditions: read-out: PPB (converted)
[12] = Tmax in male Sprague-Dawley rat at 2 mg/kg/day, po measured at day 1; type: ADME, organism-based; conditions: in vivo, time 1 day
[13] = Clearance in rat relative to hepatic blood flow; conditions: in vivo
[14] = Toxicity in C57BL/6J mouse assessed as body weight loss at 0.02 to 0.5 mg/kg, po qd administered for 3 to 4 weeks; type: organism-based; conditions: in vivo, dose lower 0.02 mg/kg, time lower 3 weeks, dose upper 0.5 mg/kg, time upper 4 weeks
[15] = Drug distribution in rat brain measured after 2 hrs; type: ADME, tissue-based; conditions: in vivo
[16] = Drug metabolism in mouse hepatocytes assessed as phase 1 metabolites formation at 10 uM incubated for 120 mins by UHPLC-UV/MS/MS method; type: ADME, cell-based, Hepatocyte; conditions: 2 h
MC-38 [17] = assay: Antitumor activity against mouse MC38 cells implanted in C57BL/6J mouse assessed as tumor growth inhibition at 100 mg/kg, po QD administered for 4 weeks; type: functional; conditions: MC-38, 672 h, read-out: TGI
[18] = Drug metabolism in rat hepatocytes assessed as phase 1 metabolites formation at 10 uM incubated for 120 mins by UHPLC-UV/MS/MS method; type: ADME, cell-based, Hepatocyte; conditions: 2 h
in vivo [19] = conditions: female, Sprague-Dawley, rat, po, 2 mg/kg
MC-38 [20] = assay: Antitumor activity against mouse MC38 cells implanted in C57BL/6J mouse assessed as reduction in tumor volume at 0.5 mg/kg, po BID administered for 3 to 4 weeks (reference value: 1549.22 +/- 217.92 mm3); type: functional; conditions: time 3-4 weeks
[21] = Tmax in female Sprague-Dawley rat at 2 mg/kg/day, po measured at day 1; type: ADME, organism-based; conditions: in vivo, time 1 day
Cytochrome P450 3A4 = Cytochrome P450 3A4 (Homo sapiens, UniProt P08684); assay: Inhibition of CYP3A4 in human liver microsomes using testosterone as substrate in presence of NADPH; type: ADME, Microsome
[22] = Tmax in Beagle dog at 5 mg/kg, po measured upto 24 hrs by LC-MS analysis; type: ADME, organism-based, Canis lupus familiaris; conditions: in vivo
[23] = Toxicity in Sprague-Dawley rat assessed as no observable adverse effect level exposure measured after 14 days; conditions: in vivo, 336 h, time 14 day
[24] = Metabolic stability in human hepatocytes assessed as intrinsic clearance at 1 uM incubated for 90 mins by LC-MS/MS method; type: ADME, cell-based, Hepatocyte; conditions: 1.5 h
MC-38 [25] = assay: Synergistic antitumor activity against mouse MC38 cells implanted in C57BL/6J mouse assessed as tumor growth inhibition at 0.5 mg/kg, po bid measured after 4 weeks in presence of 5 mg/kg anti-PD1 and measured twice a week; type: functional; conditions: MC-38, 672 h, read-out: TGI
[26] = Metabolic stability in mouse hepatocytes assessed as intrinsic clearance at 1 uM incubated for 90 mins by LC-MS/MS method; type: ADME, cell-based, Hepatocyte; conditions: 1.5 h
[27] = biological target: T1, Protein cereblon/Mitogen-activated protein kinase kinase kinase kinase 1; assay: PROTAC activity at CRBN/HPK1 in human Jurkat cells assessed as HPK1 degradation at 1 uM pretreated with MLN4924 for 4 hrs followed by compound addition and measured after 24 hrs by Western blotting analysis; type: cell-based
MC-38 [28] = assay: Synergistic antitumor activity against mouse MC38 cells implanted in C57BL/6J mouse assessed as tumor weight inhibition rate at 100 mg/kg, po QD measured after 4 weeks in presence of 5 mg/kg anti-PD1 and measured twice a week; type: functional; design: scale not given: the % may be the effect or the level left
[29] = Drug distribution in rat liver measured after 0.5 to 6 hrs; type: ADME, tissue-based; conditions: in vivo, time 0.5-6 hrs
MC-38 [30] = assay: Synergistic antitumor activity against mouse MC38 cells implanted in C57BL/6J mouse assessed as tumor weight inhibition rate at 1 mg/kg, po bid measured after 4 weeks in presence of 5 mg/kg anti-PD1 and measured twice a week; type: functional; design: scale not given: the % may be the effect or the level left
Jurkat = assay: Effect on SLP76 total protein expression in human Jurkat cells at 1 to 2000 nM incubated for 24 hrs by Western blotting assay; type: functional, cell-based; conditions: dose 1-2000 nM
[31] = Tmax in female Sprague-Dawley rat at 30 mg/kg/day, po measured at day 1; type: ADME, organism-based; conditions: in vivo, time 1 day
[32] = Metabolic stability in monkey liver microsomes assessed as intrinsic clearance at 1 uM incubated for 45 mins by LC-MS/MS method; type: ADME, Macaca mulatta, Microsome; conditions: rhesus monkey, read-out: CLH
in vivo [33] = conditions: beagle, dog, po, 5 mg/kg
Description: Oral bioavailability in Beagle dog at 5 mg/kg measured upto 24 hrs by LC-MS analysis

[34] = Drug distribution in rat heart measured after 0.5 to 6 hrs; type: ADME, tissue-based; conditions: in vivo, time 0.5-6 hrs
[35] = AUCinfinity in C57BL/6J mouse at 2 mg/kg, iv measured upto 24 hrs by LC-MS analysis; type: ADME, organism-based; conditions: in vivo
[36] = Drug distribution in rat thyroid gland measured after 0.5 to 6 hrs; type: ADME, tissue-based; conditions: in vivo, time 0.5-6 hrs
[37] = Plasma protein binding in mouse at 10 uM incubated for 6 hrs by equilibrium dialysis based LC-MS/MS method; type: ADME, cell-free; conditions: read-out: PPB (converted)
in vivo [38] = conditions: beagle, dog, po, 5 mg/kg; remark: listed apart in the source
Description: Cmax in Beagle dog at 5 mg/kg, po measured upto 24 hrs by LC-MS analysis

in vivo [39] = conditions: C57BL/6J, mouse, po, 10 mg/kg
in vivo [40] = conditions: female, Sprague-Dawley, rat, po, 100 mg/kg
[41] = Effect on action potential in rabbit purkinje fibers; type: toxicity, tissue-based, Oryctolagus cuniculus, Purkinje fiber

T1 sequence (Q92918 whole entry, looked up): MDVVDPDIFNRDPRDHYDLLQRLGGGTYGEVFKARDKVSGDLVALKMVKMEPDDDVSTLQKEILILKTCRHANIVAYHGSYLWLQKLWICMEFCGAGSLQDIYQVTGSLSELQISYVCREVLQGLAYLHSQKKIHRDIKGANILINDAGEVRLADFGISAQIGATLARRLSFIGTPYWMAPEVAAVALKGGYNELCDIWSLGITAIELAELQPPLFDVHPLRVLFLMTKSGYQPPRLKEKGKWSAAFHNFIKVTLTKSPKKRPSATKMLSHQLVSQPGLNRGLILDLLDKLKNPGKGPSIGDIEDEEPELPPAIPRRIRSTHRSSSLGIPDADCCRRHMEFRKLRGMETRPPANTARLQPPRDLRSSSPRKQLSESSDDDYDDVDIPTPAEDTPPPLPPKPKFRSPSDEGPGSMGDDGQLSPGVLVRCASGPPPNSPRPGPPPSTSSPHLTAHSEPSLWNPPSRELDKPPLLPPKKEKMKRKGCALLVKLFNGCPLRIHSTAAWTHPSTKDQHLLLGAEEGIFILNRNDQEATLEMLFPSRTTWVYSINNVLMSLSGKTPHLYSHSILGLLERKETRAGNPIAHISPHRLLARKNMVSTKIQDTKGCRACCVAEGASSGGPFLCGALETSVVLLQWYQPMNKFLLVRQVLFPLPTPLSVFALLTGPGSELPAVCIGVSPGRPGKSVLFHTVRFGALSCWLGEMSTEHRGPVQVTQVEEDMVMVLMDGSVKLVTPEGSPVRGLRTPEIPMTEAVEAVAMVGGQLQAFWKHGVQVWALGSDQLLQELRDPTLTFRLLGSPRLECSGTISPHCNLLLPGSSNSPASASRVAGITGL
T1 sequence (Q96SW2 whole entry, looked up): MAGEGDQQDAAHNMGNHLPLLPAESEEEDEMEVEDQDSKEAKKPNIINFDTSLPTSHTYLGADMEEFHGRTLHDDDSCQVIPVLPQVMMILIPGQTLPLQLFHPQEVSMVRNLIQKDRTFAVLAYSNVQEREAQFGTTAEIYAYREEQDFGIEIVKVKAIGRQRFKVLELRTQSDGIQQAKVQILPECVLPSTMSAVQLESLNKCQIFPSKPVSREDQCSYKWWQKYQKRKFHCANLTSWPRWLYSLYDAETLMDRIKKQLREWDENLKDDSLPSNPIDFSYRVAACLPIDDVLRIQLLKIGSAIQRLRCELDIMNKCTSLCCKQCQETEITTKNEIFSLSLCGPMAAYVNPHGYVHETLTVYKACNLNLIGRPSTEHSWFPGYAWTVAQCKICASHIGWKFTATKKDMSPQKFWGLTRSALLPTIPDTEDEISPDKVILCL
Cytochrome P450 2C19, sequence (P33261 whole entry): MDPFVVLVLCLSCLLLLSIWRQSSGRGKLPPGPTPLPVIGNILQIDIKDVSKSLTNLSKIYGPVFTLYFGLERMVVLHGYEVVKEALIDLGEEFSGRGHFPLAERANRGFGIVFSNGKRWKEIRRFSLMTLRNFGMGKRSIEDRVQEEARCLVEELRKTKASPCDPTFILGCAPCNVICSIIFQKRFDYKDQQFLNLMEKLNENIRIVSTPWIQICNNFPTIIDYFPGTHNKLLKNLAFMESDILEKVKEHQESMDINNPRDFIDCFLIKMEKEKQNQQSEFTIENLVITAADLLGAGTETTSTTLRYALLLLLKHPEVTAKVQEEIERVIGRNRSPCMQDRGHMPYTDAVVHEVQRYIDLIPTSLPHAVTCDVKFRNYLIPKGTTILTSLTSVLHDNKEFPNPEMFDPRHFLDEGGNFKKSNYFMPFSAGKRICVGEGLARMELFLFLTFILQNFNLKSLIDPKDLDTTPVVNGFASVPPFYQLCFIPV
Cytochrome P450 3A4, sequence (P08684 whole entry): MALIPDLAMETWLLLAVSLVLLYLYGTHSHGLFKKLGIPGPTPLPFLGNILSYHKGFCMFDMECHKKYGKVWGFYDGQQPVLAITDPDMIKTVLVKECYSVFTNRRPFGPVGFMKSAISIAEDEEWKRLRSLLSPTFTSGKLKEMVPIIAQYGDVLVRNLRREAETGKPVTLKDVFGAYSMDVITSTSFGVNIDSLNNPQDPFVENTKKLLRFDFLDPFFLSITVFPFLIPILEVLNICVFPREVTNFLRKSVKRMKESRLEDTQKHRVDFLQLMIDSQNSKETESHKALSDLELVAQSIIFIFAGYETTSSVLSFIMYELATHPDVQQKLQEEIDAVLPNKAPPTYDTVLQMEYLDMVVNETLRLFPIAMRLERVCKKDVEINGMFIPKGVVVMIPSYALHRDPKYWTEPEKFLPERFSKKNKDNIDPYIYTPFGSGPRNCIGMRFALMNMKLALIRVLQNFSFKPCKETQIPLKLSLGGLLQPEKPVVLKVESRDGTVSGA

In the case of `O=C1CCN(c2cc(C(=O)N3CCC(CC4CCN(c5ccc(-c6cnc7[nH]cc(-c8cnn(CC(F)(F)F)c8)c7n6)cn5)CC4)CC3)ccc2Cl)C(=O)N1`, the IC50 (Cytochrome P450 2C19) is reported as greater than 10 µM, the Activity [1] is reported as “Dose-dependent-effect” and the Vd [2] is reported as 0.834 L/kg. For the same molecule, the AUC(0-t) at 24 h [3] was 107 µg·h/mL, the Tmax [4] was 8 h and the Drug uptake [5] was “Active”. The Drug metabolism [6] was “metabolite_detected”, the Drug metabolism [7] was “metabolite_detected” and the Emax at 0.5 mg/kg [8] was 61.3%. It also gave a Cmax at 24 h (in vivo [9]) of 3560 ng/mL, an AUC(0-inf) [10] of 0.894 µg·h/mL and a fraction unbound at 6 h, 10 µM [11] of 0.0008. The Tmax [12] was 8.67 h, the clearance [13] was 16.6 mL/min/kg and the Activity [14] was “Non-toxic”. The Drug uptake [15] was “Active”, the Drug metabolism [16] was “metabolite_detected” and the inhibition in vivo at 100 mg/kg (MC-38 [17]) was 56.9%. The Drug metabolism [18] was “metabolite_detected”, the Cmax at 24 h (in vivo [19]) was 63.9 ng/mL and the Activity (MC-38 [20]) was 752.98 mm3. For the same molecule, the Tmax [21] was 6 h, the IC50 (Cytochrome P450 3A4) was greater than 10 µM and the Tmax [22] was 2.67 h. It also gave an NOAEL [23] of 136 µg·h/mL, a CLH [24] of 1.92 µL/min/mg and an inhibition in vivo at 0.5 mg/kg (MC-38 [25]) of 91%. The CLH [26] was 1.52 µL/min/mg, the Activity [27] was “inactive” and the Activity (MC-38 [28]) was 83.04%. The Drug uptake [29] was “Active”, the Activity (MC-38 [30]) was 76.61% and the Activity (Jurkat) was “inactive”. For the same molecule, the Tmax [31] was 8 h, the microsomal CLint at 1 µM [32] was 38 µL/min/mg and the bioavailability at 24 h (in vivo [33]) was 16%. For the same molecule, the Drug uptake [34] was “Active”, the AUC(0-inf) [35] was 5.56 µg·h/mL and the Drug uptake [36] was “Active”. For the same molecule, the fraction unbound at 6 h, 10 µM [37] was 0.0025, the Cmax at 24 h (in vivo [38]) was 111 ng/mL and the bioavailability at 24 h (in vivo [39]) was 43.7%. The AUC at 336 h (in vivo [40]) was 121 µg·h/mL and the Activity [41] was “Non-toxic”.

— ChEMBL document CHEMBL6092203, “Discovery of Novel PROTAC-Based HPK1 Degraders with High Potency and Selectivity for Cancer Immunotherapy” (J Med Chem, 2024)
